Data reported in patent US12642797B2, “Coated granule, solid dispersion, and preparation containing vortioxetine hydrobromide for oral taste masking” (Seasons Biotechnology (Taizhou) Co., Ltd., priority 2019, dated 2026).
Where a name gives a salt, the structure may show the parent alone.

Legend:
oral cavity and tongue = assay: Taste and irritation test by subjects (self-made sample vs reference sample); type: in vivo, human; settings: for Instantaneous irritation / Delayed irritation: hemihydrobromide
Protocol: In the examples, the taste masking effects of test samples were evaluated by the subject's perception of the bitterness and irritation of the oral cavity and tongue. The Taste and Irritation Classification Tested by the Subjects: [table]

[1] = Solubility in sodium acetate medium pH 6.8 simulating the oral environment (USP method); type: physicochemical; settings: sodium acetate medium pH 6.8, USP method; hemihydrobromide

Compound: Cc1ccc(Sc2ccccc2N2CCNCC2)c(C)c1 [vortioxetine hemihydrobromide]
- Instantaneous irritation (oral cavity and tongue; Subject 4, 0-1 minute, powder equivalent to 20 mg of vortioxetine tasted, listed as Reference sample (1e)): ++ (+ + Irritating, tolerable)
- Instantaneous irritation (oral cavity and tongue; Subject 4, 0-1 minute, powder equivalent to 20 mg of vortioxetine tasted, listed as Reference sample (2a)): ++ (+ + Irritating, tolerable)
- Instantaneous irritation (oral cavity and tongue; Subject 4, 0-1 minute, powder equivalent to 20 mg of vortioxetine tasted, listed as Reference sample (2c)): ++ (+ + Irritating, tolerable)
- Instantaneous irritation (oral cavity and tongue; Subject 4, 0-1 minute, powder equivalent to 20 mg of vortioxetine tasted, listed as Reference sample (3a)): +++ (+ + + Strong irritation, intolerable)
- Instantaneous irritation (oral cavity and tongue; Subject 4, 0-1 minute, powder equivalent to 20 mg of vortioxetine tasted, listed as Reference sample (3b)): +++ (+ + + Strong irritation, intolerable)
- Instantaneous irritation (oral cavity and tongue; Subject 4, 0-1 minute, powder equivalent to 20 mg of vortioxetine tasted, listed as Reference sample (3c)): +++ (+ + + Strong irritation, intolerable)
- Instantaneous irritation (oral cavity and tongue; Subject 4, 0-1 minute, powder equivalent to 20 mg of vortioxetine tasted, listed as Reference sample (4a)): +++ (+ + + Strong irritation, intolerable)
- Instantaneous irritation (oral cavity and tongue; Subject 4, 0-1 minute, powder equivalent to 20 mg of vortioxetine tasted, listed as Reference sample (1d)): ++ (+ + Irritating, tolerable)
- Instantaneous irritation (oral cavity and tongue; Subject 4, 0-1 minute, powder equivalent to 20 mg of vortioxetine tasted, listed as Reference sample (2d)): ++ (+ + Irritating, tolerable)
- Delayed irritation (oral cavity and tongue; Subject 4, powder equivalent to 20 mg of vortioxetine tasted, listed as Reference sample (1a)): 15 to 30 min
- Delayed irritation (oral cavity and tongue; Subject 4, powder equivalent to 20 mg of vortioxetine tasted, listed as Reference sample (1e)): 15 to 30 min
- Delayed irritation (oral cavity and tongue; Subject 4, powder equivalent to 20 mg of vortioxetine tasted, listed as Reference sample (2a)): >30 min
- Delayed irritation (oral cavity and tongue; Subject 4, powder equivalent to 20 mg of vortioxetine tasted, listed as Reference sample (2c)): >30 min
- Delayed irritation (oral cavity and tongue; Subject 4, powder equivalent to 20 mg of vortioxetine tasted, listed as Reference sample (3a)): 1 to 15 min
- Delayed irritation (oral cavity and tongue; Subject 4, powder equivalent to 20 mg of vortioxetine tasted, listed as Reference sample (3b)): 1 to 15 min
- Delayed irritation (oral cavity and tongue; Subject 4, powder equivalent to 20 mg of vortioxetine tasted, listed as Reference sample (3c)): >30 min
- Delayed irritation (oral cavity and tongue; Subject 4, powder equivalent to 20 mg of vortioxetine tasted, listed as Reference sample (4a)): >30 min
- Delayed irritation (oral cavity and tongue; Subject 4, powder equivalent to 20 mg of vortioxetine tasted, listed as Reference sample (5)): >30 min
- Delayed irritation (oral cavity and tongue; Subject 4, powder equivalent to 20 mg of vortioxetine tasted, listed as Reference sample (6)): 15 to 30 min
- Delayed irritation (oral cavity and tongue; Subject 4, powder equivalent to 20 mg of vortioxetine tasted, listed as Reference sample (7a)): >30 min
- Delayed irritation (oral cavity and tongue; Subject 4, powder equivalent to 20 mg of vortioxetine tasted, listed as Reference sample (8a)): >30 min
- Delayed irritation (oral cavity and tongue; Subject 4, powder equivalent to 20 mg of vortioxetine tasted, listed as Reference sample (8b)): >30 min
- Delayed irritation (oral cavity and tongue; Subject 4, powder equivalent to 20 mg of vortioxetine tasted, listed as Reference sample (1d)): 15 to 30 min
- Delayed irritation (oral cavity and tongue; Subject 4, powder equivalent to 20 mg of vortioxetine tasted, listed as Reference sample (2d)): >30 min
- Instantaneous irritation (oral cavity and tongue; Subject 5, 0-1 minute, powder equivalent to 20 mg of vortioxetine tasted, listed as Reference sample (1a)): +++ (+ + + Strong irritation, intolerable)
- Instantaneous irritation (oral cavity and tongue; Subject 5, 0-1 minute, powder equivalent to 20 mg of vortioxetine tasted, listed as Reference sample (1e)): +++ (+ + + Strong irritation, intolerable)
- Instantaneous irritation (oral cavity and tongue; Subject 5, 0-1 minute, powder equivalent to 20 mg of vortioxetine tasted, listed as Reference sample (2a)): +++ (+ + + Strong irritation, intolerable)
- Instantaneous irritation (oral cavity and tongue; Subject 5, 0-1 minute, powder equivalent to 20 mg of vortioxetine tasted, listed as Reference sample (2c)): +++ (+ + + Strong irritation, intolerable)
- Instantaneous irritation (oral cavity and tongue; Subject 5, 0-1 minute, powder equivalent to 20 mg of vortioxetine tasted, listed as Reference sample (3a)): +++ (+ + + Strong irritation, intolerable)
- Instantaneous irritation (oral cavity and tongue; Subject 5, 0-1 minute, powder equivalent to 20 mg of vortioxetine tasted, listed as Reference sample (3b)): +++ (+ + + Strong irritation, intolerable)
- Instantaneous irritation (oral cavity and tongue; Subject 5, 0-1 minute, powder equivalent to 20 mg of vortioxetine tasted, listed as Reference sample (3c)): ++ (+ + Irritating, tolerable)
- Instantaneous irritation (oral cavity and tongue; Subject 5, 0-1 minute, powder equivalent to 20 mg of vortioxetine tasted, listed as Reference sample (4a)): ++ (+ + Irritating, tolerable)
- Instantaneous irritation (oral cavity and tongue; Subject 5, 0-1 minute, powder equivalent to 20 mg of vortioxetine tasted, listed as Reference sample (1d)): +++ (+ + + Strong irritation, intolerable)
- Instantaneous irritation (oral cavity and tongue; Subject 5, 0-1 minute, powder equivalent to 20 mg of vortioxetine tasted, listed as Reference sample (2d)): ++ (+ + Irritating, tolerable)
- Delayed irritation (oral cavity and tongue; Subject 5, powder equivalent to 20 mg of vortioxetine tasted, listed as Reference sample (1a)): >30 min
- Delayed irritation (oral cavity and tongue; Subject 5, powder equivalent to 20 mg of vortioxetine tasted, listed as Reference sample (1e)): >30 min
- Delayed irritation (oral cavity and tongue; Subject 5, powder equivalent to 20 mg of vortioxetine tasted, listed as Reference sample (2a)): 15 to 30 min
- Delayed irritation (oral cavity and tongue; Subject 5, powder equivalent to 20 mg of vortioxetine tasted, listed as Reference sample (2c)): 15 to 30 min
- Delayed irritation (oral cavity and tongue; Subject 5, powder equivalent to 20 mg of vortioxetine tasted, listed as Reference sample (3a)): 1 to 15 min
- Delayed irritation (oral cavity and tongue; Subject 5, powder equivalent to 20 mg of vortioxetine tasted, listed as Reference sample (3b)): 1 to 15 min
- Delayed irritation (oral cavity and tongue; Subject 5, powder equivalent to 20 mg of vortioxetine tasted, listed as Reference sample (3c)): >30 min
- Delayed irritation (oral cavity and tongue; Subject 5, powder equivalent to 20 mg of vortioxetine tasted, listed as Reference sample (4a)): 15 to 30 min
- Delayed irritation (oral cavity and tongue; Subject 5, powder equivalent to 20 mg of vortioxetine tasted, listed as Reference sample (5)): 15 to 30 min
- Delayed irritation (oral cavity and tongue; Subject 5, powder equivalent to 20 mg of vortioxetine tasted, listed as Reference sample (6)): >30 min
- Delayed irritation (oral cavity and tongue; Subject 5, powder equivalent to 20 mg of vortioxetine tasted, listed as Reference sample (7a)): >30 min
- Delayed irritation (oral cavity and tongue; Subject 5, powder equivalent to 20 mg of vortioxetine tasted, listed as Reference sample (8a)): 15 to 30 min
- Delayed irritation (oral cavity and tongue; Subject 5, powder equivalent to 20 mg of vortioxetine tasted, listed as Reference sample (8b)): 15 to 30 min
- Delayed irritation (oral cavity and tongue; Subject 5, powder equivalent to 20 mg of vortioxetine tasted, listed as Reference sample (1d)): >30 min
- Delayed irritation (oral cavity and tongue; Subject 5, powder equivalent to 20 mg of vortioxetine tasted, listed as Reference sample (2d)): 15 to 30 min
- Delayed irritation, time to disappear (oral cavity and tongue; average of 5 subjects, powder equivalent to 20 mg of vortioxetine): more than 30 minutes
- Instantaneous irritation (oral cavity and tongue; average of 5 subjects, powder equivalent to 20 mg of vortioxetine, listed as Reference sample (1a)): +++ (+ + + Strong irritation, intolerable)
- Instantaneous irritation (oral cavity and tongue; average of 5 subjects, powder equivalent to 20 mg of vortioxetine, listed as Reference sample (1e)): +++ (+ + + Strong irritation, intolerable)
- Instantaneous irritation (oral cavity and tongue; average of 5 subjects, powder equivalent to 20 mg of vortioxetine, listed as Reference sample (2a)): +++ (+ + + Strong irritation, intolerable)
- Instantaneous irritation (oral cavity and tongue; average of 5 subjects, powder equivalent to 20 mg of vortioxetine, listed as Reference sample (2c)): ++ (+ + Irritating, tolerable)
- Instantaneous irritation (oral cavity and tongue; average of 5 subjects, powder equivalent to 20 mg of vortioxetine, listed as Reference sample (3a)): ++ (+ + Irritating, tolerable)
- Instantaneous irritation (oral cavity and tongue; average of 5 subjects, powder equivalent to 20 mg of vortioxetine, listed as Reference sample (3b)): ++ (+ + Irritating, tolerable)
- Instantaneous irritation (oral cavity and tongue; average of 5 subjects, powder equivalent to 20 mg of vortioxetine, listed as Reference sample (3c)): ++ (+ + Irritating, tolerable)
- Instantaneous irritation (oral cavity and tongue; average of 5 subjects, powder equivalent to 20 mg of vortioxetine, listed as Reference sample (4a)): +++ (+ + + Strong irritation, intolerable)
- Instantaneous irritation (oral cavity and tongue; average of 5 subjects, powder equivalent to 20 mg of vortioxetine, listed as Reference sample (5)): ++ (+ + Irritating, tolerable)
- Instantaneous irritation (oral cavity and tongue; average of 5 subjects, powder equivalent to 20 mg of vortioxetine, listed as Reference sample (6)): ++ (+ + Irritating, tolerable)
- Instantaneous irritation (oral cavity and tongue; average of 5 subjects, powder equivalent to 20 mg of vortioxetine, listed as Reference sample (7a)): +++ (+ + + Strong irritation, intolerable)
- Instantaneous irritation (oral cavity and tongue; average of 5 subjects, powder equivalent to 20 mg of vortioxetine, listed as Reference sample (8a)): ++ (+ + Irritating, tolerable)
- Instantaneous irritation (oral cavity and tongue; average of 5 subjects, powder equivalent to 20 mg of vortioxetine, listed as Reference sample (8b)): ++ (+ + Irritating, tolerable)
- Instantaneous irritation (oral cavity and tongue; average of 5 subjects, powder equivalent to 20 mg of vortioxetine, listed as Reference sample (9a)): +++ (+ + + Strong irritation, intolerable)
- Instantaneous irritation (oral cavity and tongue; average of 5 subjects, powder equivalent to 20 mg of vortioxetine, listed as Reference sample (9c)): +++ (+ + + Strong irritation, intolerable)
- Instantaneous irritation (oral cavity and tongue; average of 5 subjects, powder equivalent to 20 mg of vortioxetine, listed as Reference sample (9e)): ++ (+ + Irritating, tolerable)
- Instantaneous irritation (oral cavity and tongue; average of 5 subjects, powder equivalent to 20 mg of vortioxetine, listed as Reference sample (11a)): ++ (+ + Irritating, tolerable)
- Instantaneous irritation (oral cavity and tongue; average of 5 subjects, powder equivalent to 20 mg of vortioxetine, listed as Reference sample (12a)): +++ (+ + + Strong irritation, intolerable)
- Instantaneous irritation (oral cavity and tongue; average of 5 subjects, powder equivalent to 20 mg of vortioxetine, listed as Reference sample (12b)): +++ (+ + + Strong irritation, intolerable)
- Instantaneous irritation (oral cavity and tongue; average of 5 subjects, powder equivalent to 20 mg of vortioxetine, listed as Reference sample (13a)): ++ (+ + Irritating, tolerable)
- Instantaneous irritation (oral cavity and tongue; average of 5 subjects, powder equivalent to 20 mg of vortioxetine, listed as Reference sample (13b)): ++ (+ + Irritating, tolerable)
- Instantaneous irritation (oral cavity and tongue; average of 5 subjects, powder equivalent to 20 mg of vortioxetine, listed as Reference sample (14a)): ++ (+ + Irritating, tolerable)
- Instantaneous irritation (oral cavity and tongue; average of 5 subjects, powder equivalent to 20 mg of vortioxetine, listed as Reference sample (16)): ++ (+ + Irritating, tolerable)
- Instantaneous irritation (oral cavity and tongue; average of 5 subjects, powder equivalent to 20 mg of vortioxetine, listed as Reference sample (17)): ++ (+ + Irritating, tolerable)
- Instantaneous irritation (oral cavity and tongue; average of 5 subjects, powder equivalent to 20 mg of vortioxetine, listed as Reference sample (1d)): +++ (+ + + Strong irritation, intolerable)
- Instantaneous irritation (oral cavity and tongue; average of 5 subjects, powder equivalent to 20 mg of vortioxetine, listed as Reference sample (2d)): ++ (+ + Irritating, tolerable)
- Instantaneous irritation (oral cavity and tongue; average of 5 subjects, powder equivalent to 20 mg of vortioxetine, listed as Reference sample (9d)): ++ (+ + Irritating, tolerable)
- solubility [1]: 140 µg/mL
